Assay results from the kinase profiling compilation of Christmann-Franck et al. (2016).
One block for each compound: values may come before it.

Legend:
Assay in all cases: radiometric filter-binding kinase assay
CHEK2 (human) = CHEK2 (human) (UniProt O96017)
CLK2 (human) = CLK2 (human) (UniProt P49760)
DAPK1 (human) = DAPK1 (human) (UniProt P53355)
DYRK2 (human) = DYRK2 (human) (UniProt Q92630)
DYRK3 (human) = DYRK3 (human) (UniProt O43781)
EPHA2 (human) = EPHA2 (human) (UniProt P29317)
EPHB1 (human) = EPHB1 (human) (UniProt P54762)
EPHB2 (human) = EPHB2 (human) (UniProt P29323)
EPHB4 (human) = EPHB4 (human) (UniProt P54760)
FLT1 (human) = FLT1 (human) (UniProt P17948)
GCK (human) = GCK (human) (UniProt Q12851)
IKBKE (human) = IKBKE (human) (UniProt Q14164)
IKBKE (human), sequence (Q14164 whole entry, looked up): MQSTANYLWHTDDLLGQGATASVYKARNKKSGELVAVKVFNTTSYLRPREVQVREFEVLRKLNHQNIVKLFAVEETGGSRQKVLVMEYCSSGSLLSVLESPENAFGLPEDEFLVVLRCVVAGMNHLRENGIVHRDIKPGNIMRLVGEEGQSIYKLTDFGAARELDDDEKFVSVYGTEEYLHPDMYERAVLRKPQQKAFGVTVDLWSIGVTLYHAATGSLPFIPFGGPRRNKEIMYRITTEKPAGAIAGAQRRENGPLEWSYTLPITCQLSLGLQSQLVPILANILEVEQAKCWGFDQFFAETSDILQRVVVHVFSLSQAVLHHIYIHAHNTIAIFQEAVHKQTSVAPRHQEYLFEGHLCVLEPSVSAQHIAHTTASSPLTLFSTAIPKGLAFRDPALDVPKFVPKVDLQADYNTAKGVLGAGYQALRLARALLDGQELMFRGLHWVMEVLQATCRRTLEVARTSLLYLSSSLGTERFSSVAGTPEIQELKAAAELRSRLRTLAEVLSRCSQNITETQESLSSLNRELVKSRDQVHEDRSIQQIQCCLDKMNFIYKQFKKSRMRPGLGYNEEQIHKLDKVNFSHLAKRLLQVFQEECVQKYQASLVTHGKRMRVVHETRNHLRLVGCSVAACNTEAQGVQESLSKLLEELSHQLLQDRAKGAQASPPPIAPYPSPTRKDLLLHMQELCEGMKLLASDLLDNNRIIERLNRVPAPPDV

IRAK4 (human) = IRAK4 (human) (UniProt Q9NWZ3)
IRAK4 (human), sequence (Q9NWZ3 whole entry, looked up): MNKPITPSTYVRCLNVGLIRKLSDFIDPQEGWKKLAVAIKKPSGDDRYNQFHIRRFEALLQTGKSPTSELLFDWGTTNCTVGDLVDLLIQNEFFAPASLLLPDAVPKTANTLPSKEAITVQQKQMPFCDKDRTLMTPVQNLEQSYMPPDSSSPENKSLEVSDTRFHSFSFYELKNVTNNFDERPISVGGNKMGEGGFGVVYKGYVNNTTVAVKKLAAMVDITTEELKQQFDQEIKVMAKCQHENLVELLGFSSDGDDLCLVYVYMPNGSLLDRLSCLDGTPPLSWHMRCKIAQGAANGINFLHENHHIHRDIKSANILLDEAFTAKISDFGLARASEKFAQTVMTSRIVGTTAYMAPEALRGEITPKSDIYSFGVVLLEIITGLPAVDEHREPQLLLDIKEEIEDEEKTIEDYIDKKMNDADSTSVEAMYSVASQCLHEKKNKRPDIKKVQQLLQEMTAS

MAP3K7 TAB1 (human) = MAP3K7 TAB1 (human) (UniProt Q15750+O43318)
MAPK12 (human) = MAPK12 (human) (UniProt P53778)
MAPK14 (human) = MAPK14 (human) (UniProt Q16539)
MAPK14 (human), sequence (Q16539 whole entry, looked up): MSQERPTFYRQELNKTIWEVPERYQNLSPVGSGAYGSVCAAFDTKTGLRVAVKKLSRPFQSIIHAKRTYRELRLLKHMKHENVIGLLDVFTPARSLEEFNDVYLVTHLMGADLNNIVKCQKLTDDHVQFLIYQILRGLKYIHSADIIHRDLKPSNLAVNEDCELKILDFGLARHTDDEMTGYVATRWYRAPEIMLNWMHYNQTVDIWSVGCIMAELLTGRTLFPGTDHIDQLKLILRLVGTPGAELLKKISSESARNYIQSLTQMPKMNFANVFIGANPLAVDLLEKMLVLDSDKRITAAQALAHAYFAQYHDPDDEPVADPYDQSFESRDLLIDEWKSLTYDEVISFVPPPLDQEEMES

MAPKAPK2 (human) = MAPKAPK2 (human) (UniProt P49137)
MAPKAPK2 (human), sequence (P49137 whole entry, looked up): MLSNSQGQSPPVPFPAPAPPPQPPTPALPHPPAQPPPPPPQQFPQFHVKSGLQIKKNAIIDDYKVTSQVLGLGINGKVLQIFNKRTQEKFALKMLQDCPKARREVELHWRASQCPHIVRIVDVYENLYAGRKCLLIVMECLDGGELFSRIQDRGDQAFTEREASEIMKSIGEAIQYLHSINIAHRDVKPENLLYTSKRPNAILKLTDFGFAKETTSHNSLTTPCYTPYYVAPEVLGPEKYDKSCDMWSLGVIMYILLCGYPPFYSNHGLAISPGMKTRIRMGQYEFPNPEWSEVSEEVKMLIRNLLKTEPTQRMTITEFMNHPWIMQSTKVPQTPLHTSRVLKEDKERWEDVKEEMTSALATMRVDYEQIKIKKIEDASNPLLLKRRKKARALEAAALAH

MAPKAPK5 (human) = MAPKAPK5 (human) (UniProt Q8IW41)
MARK1 (human) = MARK1 (human) (UniProt Q9P0L2)
MARK1 (human), sequence (Q9P0L2 whole entry, looked up): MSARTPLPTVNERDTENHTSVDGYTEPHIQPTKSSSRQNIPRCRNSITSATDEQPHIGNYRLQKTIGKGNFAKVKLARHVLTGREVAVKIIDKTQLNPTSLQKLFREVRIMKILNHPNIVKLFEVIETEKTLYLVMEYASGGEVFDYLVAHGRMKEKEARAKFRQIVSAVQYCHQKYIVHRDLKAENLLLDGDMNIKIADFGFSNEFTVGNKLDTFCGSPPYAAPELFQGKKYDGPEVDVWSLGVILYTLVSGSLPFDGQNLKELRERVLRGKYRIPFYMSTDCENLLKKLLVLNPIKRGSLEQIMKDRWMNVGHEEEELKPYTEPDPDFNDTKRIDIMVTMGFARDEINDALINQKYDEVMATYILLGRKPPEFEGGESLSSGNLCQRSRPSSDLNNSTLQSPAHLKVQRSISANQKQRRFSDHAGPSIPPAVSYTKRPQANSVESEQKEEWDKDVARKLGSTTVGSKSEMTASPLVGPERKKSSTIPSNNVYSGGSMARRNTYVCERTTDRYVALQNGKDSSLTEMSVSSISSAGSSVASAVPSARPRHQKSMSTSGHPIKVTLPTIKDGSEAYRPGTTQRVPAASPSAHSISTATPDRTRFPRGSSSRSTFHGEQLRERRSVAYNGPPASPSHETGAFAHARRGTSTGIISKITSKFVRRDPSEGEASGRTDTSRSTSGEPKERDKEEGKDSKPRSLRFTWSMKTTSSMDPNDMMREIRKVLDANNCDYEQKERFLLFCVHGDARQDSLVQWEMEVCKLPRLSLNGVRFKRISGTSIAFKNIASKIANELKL

MELK (human) = MELK (human) (UniProt Q14680)
MYLK (human) = MYLK (human) (UniProt Q15746)
NEK2 (human) = NEK2 (human) (UniProt P51955)
PIM1 (human) = PIM1 (human) (UniProt P11309)
PIM1 (human), sequence (P11309 whole entry, looked up): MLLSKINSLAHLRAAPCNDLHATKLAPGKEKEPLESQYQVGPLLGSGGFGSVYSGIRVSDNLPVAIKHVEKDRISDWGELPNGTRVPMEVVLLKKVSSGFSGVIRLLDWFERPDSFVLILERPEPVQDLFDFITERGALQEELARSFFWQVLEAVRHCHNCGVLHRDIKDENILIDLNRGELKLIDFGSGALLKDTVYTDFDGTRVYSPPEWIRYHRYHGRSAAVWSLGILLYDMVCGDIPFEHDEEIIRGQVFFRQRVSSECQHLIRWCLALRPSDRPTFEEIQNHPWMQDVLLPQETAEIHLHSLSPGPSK

PIM3 (human) = PIM3 (human) (UniProt Q86V86)
PKN2 (human) = PKN2 (human) (UniProt Q16513)
PRKCA (human) = PRKCA (human) (UniProt P17252)
ROCK2 (rat) = conditions: accession and sequence are those of the human protein
RPS6KA1 KD1 KD2 (human) = RPS6KA1 KD1 KD2 (human) (UniProt Q15418)
RPS6KA1 KD1 KD2 (human), sequence (Q15418 whole entry, looked up): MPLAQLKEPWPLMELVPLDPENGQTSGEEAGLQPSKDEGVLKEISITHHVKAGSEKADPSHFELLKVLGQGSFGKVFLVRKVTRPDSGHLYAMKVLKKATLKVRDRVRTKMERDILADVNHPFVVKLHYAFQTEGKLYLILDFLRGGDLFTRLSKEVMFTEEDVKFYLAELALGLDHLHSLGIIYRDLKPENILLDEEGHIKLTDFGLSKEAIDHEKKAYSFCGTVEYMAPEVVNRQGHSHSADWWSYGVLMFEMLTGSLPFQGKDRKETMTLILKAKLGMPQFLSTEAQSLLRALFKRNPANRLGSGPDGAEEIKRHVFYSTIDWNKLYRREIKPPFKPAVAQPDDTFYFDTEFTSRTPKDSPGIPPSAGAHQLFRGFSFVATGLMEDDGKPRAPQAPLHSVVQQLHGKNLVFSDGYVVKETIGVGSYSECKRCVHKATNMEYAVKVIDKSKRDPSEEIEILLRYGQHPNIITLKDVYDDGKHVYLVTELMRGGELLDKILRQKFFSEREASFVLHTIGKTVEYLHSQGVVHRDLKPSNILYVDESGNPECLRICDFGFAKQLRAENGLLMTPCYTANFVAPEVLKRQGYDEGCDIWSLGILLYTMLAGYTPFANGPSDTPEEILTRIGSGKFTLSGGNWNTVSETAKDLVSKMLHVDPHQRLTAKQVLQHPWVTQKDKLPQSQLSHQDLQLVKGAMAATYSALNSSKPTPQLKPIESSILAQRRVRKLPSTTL

[1] = test system: RPS6KB1 (human), P23443 [T412E]
[2] = test system: SGK1 (human), O00141 [S422D]
STK3 (human) = STK3 (human) (UniProt Q13188)
STK3 (human), sequence (Q13188 whole entry, looked up): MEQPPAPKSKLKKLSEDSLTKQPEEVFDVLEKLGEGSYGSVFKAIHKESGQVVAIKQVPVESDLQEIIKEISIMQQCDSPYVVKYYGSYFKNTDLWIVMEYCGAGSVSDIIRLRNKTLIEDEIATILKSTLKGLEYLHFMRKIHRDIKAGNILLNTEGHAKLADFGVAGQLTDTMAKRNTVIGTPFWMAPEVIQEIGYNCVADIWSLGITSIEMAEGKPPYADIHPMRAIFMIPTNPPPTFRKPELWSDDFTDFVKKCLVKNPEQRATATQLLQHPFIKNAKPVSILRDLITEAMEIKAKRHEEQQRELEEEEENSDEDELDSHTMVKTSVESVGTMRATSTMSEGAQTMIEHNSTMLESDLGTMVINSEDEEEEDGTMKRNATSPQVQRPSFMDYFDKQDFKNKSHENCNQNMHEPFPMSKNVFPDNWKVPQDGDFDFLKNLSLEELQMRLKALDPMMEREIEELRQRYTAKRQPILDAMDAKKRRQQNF

TAOK1 (human) = TAOK1 (human) (UniProt Q7L7X3)
TTK (human) = TTK (human) (UniProt P33981)
HIPK2 (human) = HIPK2 (human) (UniProt Q9H2X6)

DYRK2 (human), sequence (Q92630 whole entry, looked up): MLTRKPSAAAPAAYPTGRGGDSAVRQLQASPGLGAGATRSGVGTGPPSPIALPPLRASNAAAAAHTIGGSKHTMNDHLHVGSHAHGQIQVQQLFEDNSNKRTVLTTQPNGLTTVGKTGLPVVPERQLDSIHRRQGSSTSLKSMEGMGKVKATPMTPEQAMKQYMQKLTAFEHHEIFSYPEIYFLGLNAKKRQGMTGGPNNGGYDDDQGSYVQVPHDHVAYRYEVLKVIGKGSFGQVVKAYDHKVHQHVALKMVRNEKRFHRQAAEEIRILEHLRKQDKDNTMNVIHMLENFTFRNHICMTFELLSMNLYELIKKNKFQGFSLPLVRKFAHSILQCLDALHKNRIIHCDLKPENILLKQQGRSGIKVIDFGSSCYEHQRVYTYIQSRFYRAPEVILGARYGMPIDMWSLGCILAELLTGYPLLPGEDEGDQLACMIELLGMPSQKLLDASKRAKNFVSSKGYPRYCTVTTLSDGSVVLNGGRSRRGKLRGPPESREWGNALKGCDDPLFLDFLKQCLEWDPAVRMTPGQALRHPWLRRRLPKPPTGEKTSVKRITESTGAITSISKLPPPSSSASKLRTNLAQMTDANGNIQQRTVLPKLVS

residual activity (CHEK2 (human); compound 10.0 µM): 92%
residual activity (CLK2 (human); compound 10.0 µM): 126%
residual activity (DAPK1 (human); compound 10.0 µM): 112%
residual activity (DYRK2 (human); compound 10.0 µM): 54%
residual activity (DYRK3 (human); compound 10.0 µM): 55%
residual activity (EPHA2 (human); compound 10.0 µM): 90%
residual activity (EPHB1 (human); compound 10.0 µM): 85%
residual activity (EPHB2 (human); compound 10.0 µM): 81%
residual activity (EPHB4 (human); compound 10.0 µM): 89%
residual activity (FLT1 (human); compound 10.0 µM): 47%
residual activity (GCK (human); compound 10.0 µM): 96%
residual activity (IKBKE (human); compound 10.0 µM): 156%
residual activity (IRAK4 (human); compound 10.0 µM): 112%
residual activity (MAP3K7 TAB1 (human); compound 10.0 µM): 102%
residual activity (MAPK12 (human); compound 10.0 µM): 112%
residual activity (MAPK14 (human); compound 10.0 µM): 105%
residual activity (MAPKAPK2 (human); compound 10.0 µM): 78%
residual activity (MAPKAPK5 (human); compound 10.0 µM): 97%
residual activity (MARK1 (human); compound 10.0 µM): 62%
residual activity (MELK (human); compound 10.0 µM): 82%
residual activity (MYLK (human); compound 10.0 µM): 109%
residual activity (NEK2 (human); compound 10.0 µM): 125%
residual activity (PIM1 (human); compound 10.0 µM): 109%
residual activity (PIM3 (human); compound 10.0 µM): 92%
residual activity (PKN2 (human); compound 10.0 µM): 105%
residual activity (PRKCA (human); compound 10.0 µM): 96%
residual activity (ROCK2 (rat); compound 10.0 µM): 91%
residual activity (RPS6KA1 KD1 KD2 (human); compound 10.0 µM): 92%
residual activity ([1]; compound 10.0 µM): 120%
residual activity ([2]; compound 10.0 µM): 126%
residual activity (STK3 (human); compound 10.0 µM): 122%
residual activity (TAOK1 (human); compound 10.0 µM): 126%
residual activity (TTK (human); compound 10.0 µM): 90%
SMILES: CCOC(=O)c1ccc(N2NC(=O)/C(=C/c3ccc([N+](=O)[O-])o3)C2=O)cc1

residual activity (CHEK2 (human); compound 0.01 µM): 93%
residual activity (CHEK2 (human); compound 0.1 µM): 114%
residual activity (CHEK2 (human); compound 1.0 µM): 89%
residual activity (CLK2 (human); compound 0.01 µM): 101%
residual activity (CLK2 (human); compound 0.1 µM): 82%
residual activity (CLK2 (human); compound 1.0 µM): 40%
residual activity (DAPK1 (human); compound 0.01 µM): 112%
residual activity (DAPK1 (human); compound 0.1 µM): 95%
residual activity (DAPK1 (human); compound 1.0 µM): 95%
residual activity (DYRK2 (human); compound 0.01 µM): 104%
residual activity (DYRK2 (human); compound 0.1 µM): 92%
residual activity (DYRK2 (human); compound 1.0 µM): 90%
residual activity (DYRK3 (human); compound 0.01 µM): 92%
residual activity (DYRK3 (human); compound 0.1 µM): 119%
residual activity (DYRK3 (human); compound 1.0 µM): 91%
residual activity (EPHA2 (human); compound 0.01 µM): 95%
residual activity (EPHA2 (human); compound 0.1 µM): 93%
residual activity (EPHA2 (human); compound 1.0 µM): 100%
residual activity (EPHB1 (human); compound 0.01 µM): 106%
residual activity (EPHB1 (human); compound 0.1 µM): 120%
residual activity (EPHB1 (human); compound 1.0 µM): 94%
residual activity (EPHB2 (human); compound 0.1 µM): 108%
residual activity (EPHB2 (human); compound 1.0 µM): 95%
residual activity (EPHB4 (human); compound 0.01 µM): 106%
residual activity (EPHB4 (human); compound 0.1 µM): 104%
residual activity (EPHB4 (human); compound 1.0 µM): 96%
residual activity (FLT1 (human); compound 0.01 µM): 109%
residual activity (FLT1 (human); compound 0.1 µM): 88%
residual activity (FLT1 (human); compound 1.0 µM): 108%
residual activity (GCK (human); compound 0.01 µM): 112%
residual activity (GCK (human); compound 0.1 µM): 103%
residual activity (GCK (human); compound 1.0 µM): 108%
residual activity (HIPK2 (human); compound 0.01 µM): 100%
residual activity (HIPK2 (human); compound 0.1 µM): 116%
residual activity (HIPK2 (human); compound 1.0 µM): 105%
residual activity (IKBKE (human); compound 0.01 µM): 114%
residual activity (IKBKE (human); compound 0.1 µM): 106%
residual activity (IKBKE (human); compound 1.0 µM): 96%
residual activity (IRAK4 (human); compound 0.01 µM): 90%
residual activity (IRAK4 (human); compound 0.1 µM): 90%
residual activity (IRAK4 (human); compound 1.0 µM): 83%
residual activity (MAP3K7 TAB1 (human); compound 0.01 µM): 92%
residual activity (MAP3K7 TAB1 (human); compound 1.0 µM): 84%
residual activity (MAPK12 (human); compound 0.01 µM): 71%
residual activity (MAPK12 (human); compound 0.1 µM): 102%
residual activity (MAPK12 (human); compound 1.0 µM): 80%
residual activity (MAPK14 (human); compound 0.01 µM): 109%
residual activity (MAPK14 (human); compound 0.1 µM): 121%
residual activity (MAPK14 (human); compound 1.0 µM): 114%
residual activity (MAPKAPK2 (human); compound 0.01 µM): 99%
residual activity (MAPKAPK2 (human); compound 0.1 µM): 102%
residual activity (MAPKAPK2 (human); compound 1.0 µM): 99%
residual activity (MAPKAPK5 (human); compound 0.01 µM): 97%
residual activity (MAPKAPK5 (human); compound 0.1 µM): 112%
residual activity (MAPKAPK5 (human); compound 1.0 µM): 98%
residual activity (MARK1 (human); compound 0.01 µM): 93%
residual activity (MARK1 (human); compound 0.1 µM): 90%
residual activity (MARK1 (human); compound 1.0 µM): 86%
residual activity (MELK (human); compound 0.01 µM): 97%
residual activity (MELK (human); compound 0.1 µM): 107%
residual activity (MELK (human); compound 1.0 µM): 92%
residual activity (MYLK (human); compound 0.01 µM): 96%
residual activity (MYLK (human); compound 0.1 µM): 93%
residual activity (MYLK (human); compound 1.0 µM): 106%
residual activity (NEK2 (human); compound 0.01 µM): 97%
residual activity (NEK2 (human); compound 0.1 µM): 97%
residual activity (NEK2 (human); compound 1.0 µM): 96%
residual activity (PIM1 (human); compound 0.01 µM): 104%
residual activity (PIM1 (human); compound 0.1 µM): 96%
residual activity (PIM1 (human); compound 1.0 µM): 98%
residual activity (PIM3 (human); compound 0.01 µM): 104%
residual activity (PIM3 (human); compound 0.1 µM): 101%
residual activity (PIM3 (human); compound 1.0 µM): 95%
residual activity (PKN2 (human); compound 0.01 µM): 77%
residual activity (PKN2 (human); compound 0.1 µM): 104%
residual activity (PKN2 (human); compound 1.0 µM): 75%
residual activity (PRKCA (human); compound 0.01 µM): 87%
residual activity (PRKCA (human); compound 0.1 µM): 89%
residual activity (PRKCA (human); compound 1.0 µM): 94%
residual activity (ROCK2 (rat); compound 0.01 µM): 105%
residual activity (ROCK2 (rat); compound 0.1 µM): 106%
residual activity (ROCK2 (rat); compound 1.0 µM): 97%
residual activity (RPS6KA1 KD1 KD2 (human); compound 0.01 µM): 99%
residual activity (RPS6KA1 KD1 KD2 (human); compound 0.1 µM): 102%
residual activity (RPS6KA1 KD1 KD2 (human); compound 1.0 µM): 65%
residual activity ([1]; compound 0.01 µM): 125%
residual activity ([1]; compound 0.1 µM): 104%
residual activity ([1]; compound 1.0 µM): 103%
residual activity ([2]; compound 0.01 µM): 103%
residual activity ([2]; compound 1.0 µM): 100%
residual activity (STK3 (human); compound 0.01 µM): 99%
residual activity (STK3 (human); compound 0.1 µM): 116%
residual activity (STK3 (human); compound 1.0 µM): 93%
residual activity (TAOK1 (human); compound 0.01 µM): 91%
residual activity (TAOK1 (human); compound 0.1 µM): 101%
residual activity (TAOK1 (human); compound 1.0 µM): 105%
residual activity (TTK (human); compound 0.01 µM): 93%
residual activity (TTK (human); compound 0.1 µM): 99%
residual activity (TTK (human); compound 1.0 µM): 96%
SMILES: O=C(Nc1nc2cc(C(F)(F)F)cc(NC3CC3)n2n1)c1cccnc1
